“Also recorded” adds a separate entry of the source.
Columns and labels:
cancer cells or tissues = tested on: cancer cells or tissues; design: method as in PMID 27255651, PMID 23713525; conditions: competitors heparin and HS; ref [13], [19]; cited from earlier work
syndecan-3 = assay: SPR, NT4 binding to recombinant syndecan-3; design: species or system human; conditions: rHSPG 25 μg/mL over immobilized NT4
Experimental: (§1) Experiments were performed on a Biacore T100 instrument (GE Healthcare). All materials were purchased from GE Healthcare unless otherwise specified. Full-length recombinant human HSPG were purchased from R&D Systems. Syndecan-3, syndecan-4, and glypican-3 were obtained from the mouse myeloma cell line (NS0), and glypican-4 was obtained from the Chinese Hamster Ovary cell line. The activity of syndecan-4, glypican-3, and glypican-4 was measured by the supplier as the ability of the immobilized protein to bind FGF-basic. The activity of syndecan-3 was measured by the supplier as the ability of the immobilized protein to inhibit adhesion of Saos-2 human osteosarcoma cells to human fibronectin.
(§2) NT4-biotin was captured on a CM5 sensor chip where streptavidin had previously been immobilized by standard amine coupling. Briefly, the sensor chip surface was activated with a mixture of 0.1 M 1-ethyl-3(3-dimethylaminopropyl)-carbodiimide (EDC) and 0.4 M N-hydroxyl succinimide (NHS) for 7 min at a flow rate of 5 μl/min. Streptavidin was injected over the surface for 7 min, and finally, 1 M ethanolamine pH 8.5 was used to block any activated carboxyl groups. […]
(§3) Kinetics were analyzed with the Biacore T100 evaluation 1.1.1 software using the 1:1 Langmuir model to fit the curves.

glypican-3 = assay: SPR, NT4 binding to recombinant glypican-3; design: species or system human; conditions: rHSPG over immobilized NT4
Experimental: as §1, §2, §3

[1] = tested on: HT-29, PANC-1, MCF-7, and MDA-MB-231 cells; assay: NT4 cell binding versus sulfatase expression in cell panel; type: cell-based, human; conditions: SULF-1 and SULF-2 expression (RT-PCR; SULF-1 also Western blot) versus flow cytometry binding
Experimental: PANC-1 human pancreas adenocarcinoma, HT-29 human colon adenocarcinoma, and MCF-7 and MDA-MB-231 human breast adenocarcinoma cells were grown in the recommended American Type Culture Collection (ATCC) media, supplemented with 10% fetal calf serum, 200 μg/ml glutamine, 100 μg/ml streptomycin, 60 μg/ml penicillin, and maintained at 37°C, 5% CO2. Cell lines were purchased from ATCC, and cell profiling was analyzed to authenticate human cell lines (BMR Genomics). All experiments were performed using 2 × 10^5 cells in 96-well U-bottom plates. All dilutions were performed in phosphate-buffered saline (PBS), containing 5 mM EDTA and 1% bovine serum albumin (BSA). […] P values were calculated using a two-tailed Student t-test and GraphPad Prism 5.0 software. […] RNA was quantified by spectrophotometry at 260 and 280 nm and verified by agarose gel electrophoresis. The same quantity of RNA for every cell line was loaded on the gel. […] Signals were detected using Image LAS4010 (GE Healthcare). […] P values were calculated using a one-tailed Student t-test and GraphPad Prism 5.0 software. […] Signals were detected using Image LAS4010 (GE Healthcare). […] P values were calculated using a parametric, unpaired Student t-test, and GraphPad Prism 5.0 software.

glypican-4 = assay: SPR, NT4 binding to recombinant glypican-4; design: species or system human; conditions: rHSPG over immobilized NT4
Experimental: as §1, §2, §3

[2] = design: method as in PMID 27255651; conditions: compared with heparin and HS; ref [13]; cited from earlier work

For (pyELYENKPRRPYIL)4K2K-beta-Ala [NT4], the “inhibition of NT4 binding and internalization by heparin and HS” value (cancer cells or tissues) is given as “completely inhibited”, the “binding to syndecan-3” value (syndecan-3) is given as “does not bind; also recorded: did not bind” and the “binding to glypican-3” value (glypican-3) is given as “bound; also recorded: binds”. The “correlation of NT4 binding with sulfatase expression” value [1] was “inversely correlated with sulfatase expression; also recorded: inversely correlated with expression of sulfatases”, the “binding to glypican-4” value (glypican-4) was “bound; also recorded: binds” and the “binding to chondroitin sulfate” value [2] was “lower affinity”.

Source: publication PMC6759624, “Unraveling Heparan Sulfate Proteoglycan Binding Motif for Cancer Cell Selectivity” (Frontiers in Oncology, 2019)
